Assays:
[1] = test system: HO-1-LacZ (HOZ) transgene; experiment: LacZ transgene expression in HO-1-LacZ (HOZ) reporter mice; assay type: in vivo, mouse
Experimental: Each test compound was dissolved in the appropriate vehicle solution and administered by intraperitoneal injection (i.p.) at a dose volume of 10 ml/kg. Wherever possible, both naive (untreated) and vehicle-treated controls were used. If a test item whose toxicity in the mouse is poorly characterised was to be used, a dose-ranging experiment was conducted prior to the main experiment. The test item was administered to a single mouse which was monitored for any adverse effects 6-8 hours and 24 hours later. If the single dose ranging mouse tolerated the treatment, the remaining mice were administered the test item according to the protocol.
Two slices of tissue (˜2 mm thickness) were removed for histochemical analysis of LacZ expression according to methods described below.
Tissues were washed with PBS and prefixed in 0.2% glutaraldehyde in PBS containing 0.1M MgCl2 and 5 mM EDTA, pH 7.3, for 4 hours at 4° C. on a shaker. After fixation, the tissues were transferred to 20% Sucrose solution and dehydrated overnight at 4° C. The next day they were embedded in cryo-M-bed medium on cork discs and lowered slowly into liquid nitrogen then transferred to −80° C. until sections were required.
Cryostat sample and chamber temperatures were set to −30° C. The sample to be sectioned was placed in the cryostat one hour prior to sectioning to allow equilibration at the appropriate temperature. Frozen sections (10 μm) were cut and placed on aminopropyltriethoxysilane (APES) coated slides.
Prior to staining, sections were incubated in 0.2% glutaraldehyde (as above) for 10 minutes at room temperature then washed twice (5 min each) in PBS containing 2 mM MgCl2, 0.01% sodium deoxycholate and 0.02% % Nonidet-P40. Sections were then […] the same wash solution containing 1 mg/ml X-gal, 5 mM potassium ferrocyanide and 5 mM potassium ferricyanide overnight at 37° C. then washed twice in PBS for 5 min, allowed to air dry and mounted in aqueous mounting medium (Hydromount). Slides were evaluated and photographed. • Frozen Method 2
Tissues were excised, immediately placed into chilled 4% paraformaldehyde containing 0.1% glutaraldehyde and 2 mM MgCl2 in PBS, and fixed in the above solution for 3 hours at 2-8° C. with gentle shaking. Fixed tissues were washed at 2-8° C. for 3×5 minutes with chilled PBS containing 2 mM MgCl2 and dehydrated overnight at 2-8° C. in PBS containing 2 mM MgCl2 and 30% (w/v) sucrose overnight The next day dehydrated tissues were embedded in OCT embedding medium using an isopentane/dry ice bath. Embedded tissues were stored at −70° C. until they could be cryosectioned.
Frozen sections were washed three times for 5 minutes in PBS containing 2 mM MgCl2 at 2-8° C. then 3×30 min in detergent wash (PBS containing 2 mM MgCl2 0.01% Nonidet P40 and 0.1% Sodium Deoxycholate) at 2-8° C. They were then stained overnight in PBS containing 2 mM MgCl2, 0.02% Nonidet P40, 0.1% Sodium Deoxycholate, 5 mM Potassium ferrocyanide, 5 mM Potassium ferricyanide, and 0.1% X-gal at 37° C. The next day, the slides were washed three times for 5 minutes in PBS containing 2 mM MgCl2 followed by three times for 5 minutes in PBS at room temperature. They were equilibrated with 100% ethanol (5 min) and counterstained with Eosin for 1 min at room temperature. Following dehydration and mounting they were evaluated and photographed. • Whole Mount Method
Tissue specimens that had been prefixed in fresh 4% paraformaldehyde were stained immediately using the procedure for “Whole Mount X-Gal Histochemistry of Transgenic Animal Tissues” (see http://www.rodentia.com/wmc/docs/lacZ bible.html), summarised below) was followed, and the post-fixed tissues were transferred to 70% (v/v) ethanol.
Following fixation for one hour in 4% paraformaldehyde, tissues were rinsed three times, for thirty minutes each, with rinse buffer (100 mM sodium phosphate (pH 7.3), 2 mM MgCl2, 0.01% sodium deoxycholate, 0.02% NP-40) at room temperature. […]

HO-1 mRNA = experiment: RT-PCR assay of endogenous HO-1 mRNA in HOZ mouse tissue; assay type: in vivo
Experimental: Analysis of the expression of endogenous genes was carried out by RT-PCR using the ABI Prism 7000 system. For RT-PCR analysis, frozen tissue samples were homogenised using a Polytron PT-mr2100 homogeniser in 1 ml TRI reagent (Sigma). Total RNA for each sample was isolated according to the manufacturer's instructions and RNA pellets stored at −70° C. under 75% ethanol. Each of the RNA pellets was resuspended in RNAase/DNAase free dH2O and quantified using a Genequant RNA/DNA calculator (Amersham). First strand cDNA synthesis was performed for each sample using 2 μg of total RNA and the Protoscript First Strand cDNA Synthesis Kit (New England Biolabs) according to the manufacturer's protocol. Additional steps to degrade RNA following cDNA synthesis were performed. Each sample was diluted to 50 μl with RNAase/DNAase-free dH2O and stored at −20° C.
In order to measure variation in p21 or Haemoxygenase-1 (HO-1) expression it was necessary to include an internal control. Amplification of β-Actin cDNA provides a standard to control for variations on RNA content between samples. The final reactions therefore consisted of two separate reactions (target gene and β-Actin cDNA amplification) performed simultaneously in a single tube. The PCR conditions used were 10 minutes at 95° C. followed by 40 cycles of denaturing for 15 seconds at 95° C. and annealing/extending for 1 minute at 60° C. The primers and probe for the p21 and HO-1 amplification reactions were obtained from ABI (Assay-On-Demand kit). These methods have been pre-validated for the standard conditions used on the ABI Prism 7000 system.
The effects of cadmium chloride on endogenous HO-1 expression were determined by RT-PCR assay of HO-1 mRNA levels in liver and kidney tissue from HOZ mice. […] The bars show relative concentrations of HO-1 mRNA assayed by RT-PCR in brain, kidney and liver tissue of mice that had received 10 mg/kg cadmium chloride 24 hours earlier compared with mice that had received saline and untreated mice. […]

Structure (SMILES): [Cl][Cd][Cl] [Cadmium Chloride, cadmium chloride]
- expression of the HOZ gene in kidney ([1]; 8 mg/kg, 8 hours after dosing): detectable expression
- LacZ expression in brain ([1]; HOZ mice, with or without cadmium chloride treatment): no evidence of LacZ expression
- LacZ staining in liver ([1]; HOZ mouse, 10 mg/kg i.p. in saline, 24 hours after dosing): intense blue staining
- LacZ staining in kidney (proximal convoluted tubules) ([1]; HOZ mouse, 10 mg/kg i.p. in saline, 24 hours, versus naive and saline controls): frequency of stained PCTs was much higher
- HOZ gene expression in liver ([1]; either sex, 8 mg/kg i.p., 24 hours): clearly apparent
- LacZ staining in liver ([1]; female, 4 mg/kg i.p., 8 hours): weak LacZ staining
- HOZ gene expression in liver ([1]; female, 2-8 mg/kg i.p., 8 hours): no consistent evidence of HOZ expression
- HOZ gene expression in liver ([1]; female, lower doses (2, 4 mg/kg) i.p., 24 hours): none was evident
- HOZ gene expression in liver ([1]; male, 8 mg/kg i.p., 8 hours): High levels of HOZ gene expression
- HOZ gene expression in liver ([1]; male, lower doses (2, 4 mg/kg) i.p., 8 hours): lower levels of expression
- HOZ gene expression in liver ([1]; male, lower doses (2, 4 mg/kg) i.p., 24 hours): some HOZ expression was also apparent
- HO-1 mRNA levels in kidney and liver compared to controls (HO-1 mRNA; 10 mg/kg, after 24 hours): very substantially elevated
- HO-1 mRNA in liver versus dose (HO-1 mRNA; both sexes, 0-8 mg/kg, 8 hours): clear dose-response relationship
- HO-1 mRNA levels in liver (HO-1 mRNA; highest doses, 24 hours): slightly elevated

— US20100138935A1, “Detection of cellular stress” (priority 2004, published 2010)
